According to patent US9381142B2, “Olfactory adaptation and cross-adapting agents to reduce the perception of body odors” (Monell Chemical Senses Center, priority 2002, dated 2016):

What was measured:
[1] = system: male stress-derived axillary odor; assay: Cross-adaptation of male stress-derived axillary odor (odor panel, magnitude estimation of perceived intensity); format: in vivo, human; details: for Magnitude of Reduction of Intensity of Male Stress-Derived Odor (MSDO), Males: male stress-derived odor perceived by men; for Magnitude of Reduction of Intensity of Male Stress-Derived Odor (MSDO), Females: male stress-derived odor perceived by women
From the text: (§1) The procedure relies upon an individual constantly sniffing an adapting agent, such as a fragrance, and occasionally a test odorant. Perceived intensity of the test odorant is obtained by using psychophysical, magnitude-estimation procedures. These perceived intensities are obtained every 30 seconds over the test period, and are then compared with baseline perceived intensities obtained before the individual began sniffing the adapting agent. Throughout the testing we observe adaptation to the adapting agent. Results during trials with an inserted test odorant, such as the axillary odor used here, are believed to be reasonably predictive. If the perceived intensity of the test odorant decreases during the test, then the adapting agent cross-adapts the test odorant and becomes a cross-adapting agent. If the cross-adapting agent is itself not offensive, then the cross-adapting agent becomes a candidate for use in formulations in consumer products to ameliorate malodors, such as axillary odor or fecal/urine odors, and odors related to the female menstrual cycle.
(§2) Collection of secretions: Apocrine secretions obtained under stressed conditions provided the axillary odor that was used as the test odorant to evaluate the effectiveness of various adapting agents. Secretions were obtained from males (ages 20 to 60 years) and females (ages 20 to 40 years) in good health. […] Volunteers prepared their axillae for collection of apocrine secretions by refraining from deodorant use for 3 days and shaving their axillae the morning of the collection day.
(§3) Volunteers were rested in a supine position. The axillary regions were washed with isopropanol-soaked pads and injected intradermally with 1:10,000 adrenalin (in physiologic saline). This injection stimulated the secretion of apocrine gland secretions, which were collected in 10 μl pipettes, passed into 0.25 ml Eppendorf tubes, and stored on ice (or frozen for longer storage). The amount of secretion collected varied greatly with the individual subject (≦10 μl). The apocrine secretions from each volunteer were combined by consecutively washing each Eppendorf tube with 2×300 μl of doubly distilled water. This aqueous-apocrine fluid was transferred to a 5 ml round-bottomed flask for hydrolysis. X-N. Zeng, J. J. Leyden, J. G. Brand, A. I. Spielman, K. J. McGinley, G. Preti, An Investigation of Human Apocrine Gland Secretion for Axillary Odor Precursors, 18 J. Chem. Ecol. 1039-1055 (1992); X-N. Zeng, J. J. Leyden, A. I. Spielman and G. Preti Analysis of the characteristic human female axillary odors: Qualitative comparison to males. 22 J. Chem. Ecol. 237-257 (1996).
(§4) Production of odor: To produce quantities of stress-derived axillary odor for testing purposes, we hydrolyzed the apocrine secretion. The aqueous solution was refluxed for 20 min with 0.5 ml, 5% aqueous sodium hydroxide under a stream of nitrogen. The mixture was allowed to cool to room temperature, and then it was cooled in ice prior to being acidified with 6 N HCl to pH 2. The resulting axillary odor developed in the reaction mixture upon acidification was used as the test odorant. The axillary odors generated by this in vitro technique are analogous to the malodors produced by stressed individuals.
Sixteen (16) individuals (8 of each gender) served on an odor panel. Subjects ranged in age from 22 to 55 years (mean 32.7±10.6 s.d.), were not pregnant (by verbal report), and were all non-smokers. All panel members were screened for adequate use of magnitude estimation (some people have difficulties maintaining a ratio scale, i.e., when an odorant is half as strong as the previous, these people fail to provide a number that is half the previous estimate) and further trained in its use during 2-3 training sessions. All 16 subjects were tested with samples of male malodor compared to each of the potential cross-adapting agents. […]

[2] = system: female stress-derived axillary odor; assay: Cross-adaptation of female stress-derived axillary odor (odor panel, magnitude estimation of perceived intensity); format: in vivo, human; details: for Magnitude of Reduction of Intensity of Female Stress-Derived Odor (FSDO), Males: female stress-derived odor perceived by men; for Magnitude of Reduction of Intensity of Female Stress-Derived Odor (FSDO), Females: female stress-derived odor perceived by women
From the text: as §1, §2, §3, §4
A separate panel of 24 subjects (12 males and 12 females) tested samples of female stress-derived axillary odor with potential cross-adapting agents, some of which were not included in Example 1 above. Some of the subjects assessing the effectiveness of cross-adaptation of male stress-derived axillary odor were also used in the experiment with female secretions. However, these two experiments were treated as independent events. All panel members were screened for adequate use of magnitude estimation and further trained in its use during two to three training sessions. […]
Note: key: best: Best = Superior Cross-Adaptation; good: Good = Adequate Cross-Adaptation; poor: Poor = Ineffective Cross-Adaptation.

| SMILES | Magnitude of Reduction of Intensity of Male Stress-Derived Odor (MSDO), Males [1] | Magnitude of Reduction of Intensity of Male Stress-Derived Odor (MSDO), Females [1] | Magnitude of Reduction of Intensity of Female Stress-Derived Odor (FSDO), Males [2] | Magnitude of Reduction of Intensity of Female Stress-Derived Odor (FSDO), Females [2] |
| --- | --- | --- | --- | --- |
| CCCCCC1C(=O)CCC1CC(=O)OC (centres unmarked) [HEDIONE ®, methyl dihydro jasmonate] | poor | poor | poor | poor |
| CC(=O)OC1CCCCC1C(C)(C)C (centres unmarked) [Agrumex, 2-tert-butyl cyclohexyl acetate] | good | poor | poor | best |
